Entries after “also recorded” stand apart in the source; their conditions may differ. Where two headings read alike, the source gives them in different places.
What was measured:
[1] = test system: HepaRG cells; experiment: Cell viability assessment (WST-1 assay); type: cell-based, human; settings: 95% CI in brackets
Description: Undifferentiated HepaRG cells were purchased from Biopredic international (Saint Grégoire, France). HepaRG cells have unlimited growth capacity and phenotypic stability, stable enzymatic activities over 4 weeks of cultivation, and similar metabolic function to primary human hepatocytes, and also avoid limitations of primary cells such as donor variability and phenotypic instability (Aninat et al. [2006]; Guillouzo et al. [2007]; Lambert et al. [2009]; Lübberstedt et al. [2011]; Andersson et al. [2012]). The line contains two cell types, hepatocyte-like and cholangiocyte-like cells (Parent et al. [2004]), which allows for elucidation of cell-specific toxicity (Jossé et al. [2008]). Cells were seeded at a density of approximately 27′000 cells/cm^2 into a 150 × 25 mm petri dish and were cultured for 2 weeks in William’s E medium (cat. nr.: 32,551,020, ThermoFisher Scientific, Massachusetts, USA) supplemented with 2 mM glutamine, 10% (v/v) fetal bovine serum (FBS) good forte (cat. nr.: P40-47,500, PAN-Biotech, Aidenbach, Germany), 100 U/ml penicillin and 100 µg/ml streptomycin (cat. nr.: 15,140,122, ThermoFisher Scientific, Massachusetts, USA), 5 µg/ml Gibco recombinant AOF insulin (cat. nr.: A11382II, ThermoFisher Scientific, Massachusetts, USA) and 50 µM hydrocortisone hemisuccinate (cat. nr.: H4881, Sigma-Aldrich, St. Louis, USA) at 37 °C and 5% CO2. Differentiation was induced by culturing the cells for another 2 weeks in the above mentioned medium supplemented with 1.7% DMSO. After 4 weeks in culture, differentiated HepaRG cells were seeded at a high density of approximately 227′000 cells/cm^2 (72,000 cells/well with 100 µl per well) into black 96-well plates with a clear bottom (cat.nr.: 3603, Corning, New York, USA) and maintained for 10 days. After 10 days, cells were first adapted to treatment medium (culture medium containing 0.5% DMSO and 2% FBS) for 48 h and then used for cell viability and high-content imaging analysis.
Cell viability was analyzed using the WST-1 assay which is based on the measurement of mitochondrial dehydrogenase activity (cat. nr: ab155902, Abcam, Cambridge, UK). HepaRG cells were exposed to chemicals at defined concentrations for 24 h. Triton X-100 (0.01%) was a positive control. One hour before the end of incubation period, 10 µl of WST-1 reagent was added to each well, quickly mixed by shaking the plate, and returned to the cell culture incubator (37 °C, 5% CO2). After 1 h, absorbance was measured (450 nm, reference wavelength 620 nm) using a plate reader (Infinite M200 Pro, Tecan group, Männerdorf, Switzerland). Absorbance was then subtracted from the reference wavelength, corrected for background by subtracting values measured without cells, and then normalized to the solvent control, which was set to 100%. Dose–response data were fitted using drc package (Version 3.0.1) (Ritz et al. [2015]) in R 3.6.1. Data were from at least 3 independent experiments with 6 technical replicates per condition.

[2] = test system: HepaRG cells; experiment: High-content imaging assay: lipid accumulation (Bodipy lipid droplets); type: cell-based; settings: for Lipid accumulation response (in words): population level, threshold ± 2 standard deviations of the response at the two lowest concentrations; for EC (BMC, 1 SD from control): read-out: LA: Benchmark concentration (µM) per imaging endpoint calculated with BMDS software
[3] = test system: HepaRG cells; settings: HepaRG 24 h; for Mitochondrial membrane potential response (in words): population level, threshold ± 2 standard deviations of the response at the two lowest concentrations
[4] = test system: HepaRG cells; settings: for OS: Benchmark concentration (µM) per imaging endpoint calculated with BMDS software: oxidative stress, Supplementary table 3; for Oxidative stress response (in words): population level, threshold ± 2 standard deviations of the response at the two lowest concentrations
[5] = test system: HepaRG cells
[6] = for OED (mg/kg BW/day): IVIVE derived median with 95% CI, from BMC of positive imaging endpoint, oral, daily dosing, Table 1; for OED: IVIVE derived median over all positive imaging endpoints, human simulation, Table 2
[7] = atrazine: increase relative liver weight, ref Aguilar et al. [2009], ATSDR [2003], Food and Authority [2009a], Food and Authority [2009b], cited from earlier work; for NOAEL from literature (mg/kg BW/day): first value of cell NOAEL/LOAEL; for LOAEL from literature (mg/kg BW/day): second value of cell NOAEL/LOAEL
[8] = cited from earlier work; for In vivo Css: human, published, ref Birkett and Miners 1991, Graham et al. 2011, Freedman and Somberg 1991, Vasudev et al. 2001
[9] = test system: HepaRG cells; experiment: cells; settings: Homo sapiens, 24 h, read-out: MMP: Benchmark concentration (µM) per imaging endpoint calculated with BMDS software
[10] = test system: HepaRG cells; experiment: cells; settings: Homo sapiens, 24 h, read-out: NM: Benchmark concentration (µM) per imaging endpoint calculated with BMDS software
[11] = Homo sapiens, lipid accumulation, HepaRG 24 h, BMR one standard deviation from control mean, Table 1
[12] = Homo sapiens, WST-1, 24 h exposure, food-related chemicals and pesticides, read-out: EC50 (95% CI) in µM from cell viability assay
[13] = Homo sapiens, 24 h exposure, reference chemicals, read-out: EC50 µM (95% CI) from cell viability (WST-1)

SMILES: O=S(=O)(c1ccccc1)N(CC(F)(F)F)c1ccc(C(O)(C(F)(F)F)C(F)(F)F)cc1 [T0901317]
- EC50 ([1]; 24 h exposure, reference chemicals, read-out: EC50 µM (95% CI) from cell viability (WST-1)): 42.9 µM
- Lipid accumulation response (in words) ([2]; HepaRG 24 h): dose-dependently increased and exceeded the threshold
- Mitochondrial membrane potential response (in words) [3]: decrease in MMP below the threshold
- Concentration at which increase of oxidative stress exceeded the threshold ([4]; HepaRG 24 h): 40 µM
- Concentration at which increase of number of apoptotic cells (nuclear morphology) exceeded the threshold ([5]; HepaRG 24 h): 40 µM

SMILES: CCNc1nc(Cl)nc(NC(C)C)n1 [Atrazine]
- Lipid accumulation response (in words) ([2]; HepaRG 24 h): induced significant lipid accumulation
- EC (BMC, 1 SD from control) [2, 11]: 19 µM
- OED (mg/kg BW/day) [6]: 0.5 (95% CI 0.2–1.7) mg/kg BW/day
- NOAEL from literature (mg/kg BW/day) [7]: 5 mg/kg BW/day

SMILES: O=c1[nH]c(=O)c2[nH]c(=O)[nH]c2[nH]1 [Uric acid]
- Lipid accumulation response (in words) ([2]; HepaRG 24 h): induced significant lipid accumulation
- EC (BMC, 1 SD from control) [2, 11]: 591 µM
- OED (mg/kg BW/day) [6]: 87.3 (95% CI 67.3–150.6) mg/kg BW/day
- In vivo blood plasma conc. ([8]; ref Aguilar et al. [2009], D’Apolito et al. [2012], Li et al. [2009]): 217 to 402 µM

SMILES: N#Cc1nn(-c2c(Cl)cc(C(F)(F)F)cc2Cl)c(N)c1[S+]([O-])C(F)(F)F (centres unmarked) [Fipronil]
- EC50 [1, 12]: 21 µM

SMILES: N#CC(C#N)=NNc1ccc(OC(F)(F)F)cc1 [FCCP, carbonylcyanide-p-trifluoromethoxyphenylhydrazone]
- Concentration at which decrease of mitochondrial membrane potential exceeded the threshold [3]: 2.5 µM

SMILES: O=C([O-])C1=NN(c2ccc(S(=O)(=O)[O-])cc2)C(=O)C1N=Nc1ccc(S(=O)(=O)[O-])cc1.[Na+].[Na+].[Na+] (centres unmarked) [Tartrazine]
- Lipid accumulation response (in words) ([2]; HepaRG 24 h): induced significant lipid accumulation

SMILES: CC1=CC[C@@H](C(C)(C)O)CC1 [Alpha-terpineol]
- EC50 [1, 12]: 2560 µM

SMILES: CCCCc1oc2ccccc2c1C(=O)c1cc(I)c(OCCN(CC)CC)c(I)c1 [amiodarone]
- EC (BMC, 1 SD from control) ([2]; 24 h): 8.5 µM
- Lipid accumulation response (in words) ([2]; HepaRG 24 h): increased in a dose-dependent manner
- Concentration at which decrease of mitochondrial membrane potential exceeded the threshold [3]: 25 µM
- Concentration at which increase of oxidative stress exceeded the threshold ([4]; HepaRG 24 h): 25 µM
- OS: Benchmark concentration (µM) per imaging endpoint calculated with BMDS software ([4]; HepaRG 24 h): 5.35 µM
- OED [6]: 15.8 mg/kg/day
- EC (BMC, 1 SD from control) [9]: 13.8 µM
- EC (BMC) [10]: 14.9 µM
- In vivo Css [8]: 5.4 to 6.0 µM

SMILES: O=C(CO)[C@@H](O)[C@H](O)[C@H](O)CO [Fructose]
- EC50 [1, 12]: 6.6 µM
- Lipid accumulation response (in words) ([2]; HepaRG 24 h): did not stimulate lipid accumulation
- Mitochondrial membrane potential response (in words) [3]: dose-dependent increase in MMP exceeding the threshold

SMILES: Cc1cccc(C)c1N(Cn1cccn1)C(=O)CCl [Metazachlor]
- EC50 [1, 12]: 183 µM
- Lipid accumulation response (in words) ([2]; HepaRG 24 h): induced significant lipid accumulation

SMILES: C=C(C)[C@H]1Cc2c(ccc3c2O[C@@H]2COc4cc(OC)c(OC)cc4[C@@H]2C3=O)O1 [rotenone]
- EC50 [1, 13]: 18.9 µM
- Lipid accumulation response (in words) ([2]; HepaRG 24 h): increased in a dose-dependent manner
- Concentration at which decrease of mitochondrial membrane potential exceeded the threshold [3]: 2.5 µM
- OED [6]: 0.3 mg/kg/day

SMILES: CCOC(=O)[C@@]1(CCCCCCOc2ccc(Cl)cc2)CO1 [etomoxir]
- EC50 [1, 13]: 144 µM
- Lipid accumulation response (in words) ([2]; HepaRG 24 h): neither induced lipid accumulation; also recorded: did not give rise to lipid accumulation
- Concentration at which increase of MMP (hyperpolarization) was observed / exceeded the threshold [3]: 36 µM
- Mitochondrial membrane potential response (in words) [3]: increased MMP
- Oxidative stress response (in words) ([4]; HepaRG 24 h): neither induced lipid accumulation, had any consistent impact on oxidative stress

SMILES: Cn1c(=O)c2c(ncn2C)n(C)c1=O [caffeine]
- EC50 [1, 13]: 6530 µM
- Lipid accumulation response (in words) ([2]; HepaRG 24 h): decrease of lipid accumulation that exceeded the threshold
- Concentration at which decrease of lipid accumulation exceeded the threshold ([2]; HepaRG 24 h, only at the highest concentration): 5000 µM

SMILES: CCCC(CCC)C(=O)O [valproic acid]
- Lipid accumulation response (in words) ([2]; HepaRG 24 h): accumulated in a dose-dependent manner above the threshold
- EC (BMC, 1 SD from control) ([2]; Homo sapiens, lipid accumulation, HepaRG 24 h, Supplementary table 3): 570 µM
- Mitochondrial membrane potential response (in words) [3]: did not affect MMP
- Oxidative stress response (in words) ([4]; HepaRG 24 h): no changes were observed
- OS: Benchmark concentration (µM) per imaging endpoint calculated with BMDS software ([4]; HepaRG 24 h): 1379.8 µM
- OED [6]: 92.7 mg/kg/day
- EC (BMC, 1 SD from control) [9]: 1310 µM
- EC (BMC) [10]: 612 µM
- In vivo Css [8]: 346.7 to 693.4 µM

SMILES: C=CC1(C)OC(=O)N(c2cc(Cl)cc(Cl)c2)C1=O (centres unmarked) [Vinclozolin]
- Lipid accumulation response (in words) ([2]; HepaRG 24 h): induced significant lipid accumulation

SMILES: O=[As][O-].[Na+] [Sodium arsenite]
- Concentration at which increase of oxidative stress exceeded the threshold [4]: 25 µM
- Concentration at which increase of number of apoptotic cells (nuclear morphology) exceeded the threshold [5]: 25 µM

SMILES: CCCCN(CCCC)SN(C)C(=O)Oc1cccc2c1OC(C)(C)C2 [Carbosulfan]
- EC (BMC, 1 SD from control) [2, 11]: 77 µM
- OED (mg/kg BW/day) [6]: 10.4 (95% CI 7–19.3) mg/kg BW/day
- OED compared with reported NOAEL, LOAEL concentrations or the exposure estimate (in words) ([6]; human): overlapped
- NOAEL from literature (mg/kg BW/day) [7]: 0.5–1.2 mg/kg BW/day
- LOAEL from literature (mg/kg BW/day) [7]: 5–62 mg/kg BW/day

SMILES: CC(C)(c1ccc(O)cc1)c1ccc(O)cc1 [Bisphenol A]
- EC50 [1, 12]: 237 µM
- Lipid accumulation response (in words) ([2]; HepaRG 24 h): induced significant lipid accumulation

SMILES: CNC(=O)Oc1cccc2c1OC(C)(C)C2 [Carbofuran]
- Lipid accumulation response (in words) ([2]; HepaRG 24 h): did not stimulate lipid accumulation
- Mitochondrial membrane potential response (in words) [3]: dose-dependent increase in MMP exceeding the threshold
- EC (BMC, 1 SD from control) [9]: 4980 µM
- NOAEL from literature (mg/kg BW/day) [7]: 0.03–0.1 mg/kg BW/day
- LOAEL from literature (mg/kg BW/day) [7]: 0.1–0.3 mg/kg BW/day

SMILES: C[C@H](CCC(=O)O)[C@H]1CC[C@H]2[C@@H]3CC[C@@H]4C[C@H](O)CC[C@]4(C)[C@H]3C[C@H](O)[C@]12C [Deoxycholic acid]
- EC50 [1, 12]: 246 µM
